According to paper PMC12045974, “T cell toxicity induced by tigecycline binding to the mitochondrial ribosome” (Nature Communications, 2025):
Several values for one entry are separate records, joined by “and”; a condition that tells them apart may be missing. Equal entries are not always repeated.

Experiments:
HeLa cells = assay: Cell viability assay (CCK-8), HeLa cells; format: cell-based; details: Hela, in % (unit assumed)
Protocol: (§1) Cells were seeded in 96-well plates ranging from 2000 to 15,000 cells per well depending on different cell lines and treated with antibiotics in serial dilutions for 72 h (120 h for the preliminary assays) in a humidified incubator (37 °C, 5% CO2) in 100 μl medium (DMEM with 10% FBS, 2.05 mM L-glutamine (Sigma) for Hek293 and Hela; RPMI-1640 with 10% FBS, 2.05 mM L-glutamine (Sigma), and 55 μM 2-ME (Gibco) for Jurkat T cells and PBMCs). Based on preliminary tests, the number of cells per well was optimized to 2000 for Hela and Hek293, 6000 for Jurkat T cells, and 15,000 for PBMCs. The stocks of antibiotics were prepared by dissolving in DMSO. As control, the same amount of DMSO was added to the non-treated groups. Serial drug dilutions were prepared in the corresponding medium to provide a total of 9 concentrations up to 300 μM for tetracyclines and up to 900 μM for additional bacterial protein synthesis inhibitors. After drug treatment, 10% CCK-8 (Cell Counting Kit-8, Sigma Aldrich) (10 μl per well) of the total volume was added to the cells and incubated for 1–4 h depending on cell lines (1 h for Hela and Hek293; 3 h for Jurkat T cells; 4 h for PBMCs) before the evaluation of the effect of antibiotics on cell viability. […] Results were visually confirmed under the light microscope. Each treatment was performed in technical repeats. Dose-response curves were plotted, mean ± SEM was shown, and half maximal inhibitory concentration (IC50) values were calculated in GraphPad Prism.

Jurkat T cells = assay: Cell viability assay (CCK-8), Jurkat T cells; format: cell-based, human; details: Jurkat, in % (unit assumed)
Protocol: as §1

Hek293 cells = assay: Cell viability assay (CCK-8), Hek293 cells; format: cell-based, human; details: in % (unit assumed)
Protocol: as §1

PBMCs = assay: Cell viability assay (CCK-8), PBMCs; format: cell-based, human; details: PBMCs, 72 h, Fig. 1A, in % (unit assumed)
Protocol: as §1, with “Buffy coats were ordered from anonymous blood donors at […]. […] Cells” for “Cells”, “1-4” for “1–4”

Compound: C[C@H]1c2cccc(O)c2C(=O)C2=C(O)[C@]3(O)C(=O)C(C(N)=O)=C(O)[C@@H](N(C)C)[C@@H]3[C@@H](O)[C@@H]21 [DOX]
- cell vialibity normalized to Vehicle (DMSO) (HeLa cells; dose 0.137174 μM): 99.8907
- cell vialibity normalized to Vehicle (DMSO) (HeLa cells; dose 0.411523 μM): 100.467 and 99.0837
- cell vialibity normalized to Vehicle (DMSO) (HeLa cells; dose 1.23457 μM): 99.4691 and 99.9582
- cell vialibity normalized to Vehicle (DMSO) (HeLa cells; dose 3.7037 μM): 100.07 and 93.5237
- cell vialibity normalized to Vehicle (DMSO) (HeLa cells; dose 11.1111 μM): 94.9721 and 92.1866
- cell vialibity normalized to Vehicle (DMSO) (HeLa cells; dose 33.3333 μM): 96.9079 and 96.5877
- cell vialibity normalized to Vehicle (DMSO) (HeLa cells; dose 100 μM): 97.8134 and 89.7632
- cell vialibity normalized to Vehicle (DMSO) (HeLa cells; dose 300 μM): 79.6379 and 78.468
- cell vialibity normalized to Vehicle (DMSO) (HeLa cells; dose 900 μM): 4.838 and 4.476
- cell vialibity normalized to Vehicle (DMSO) (Jurkat T cells; dose 0.137174 μM): 94.1176 and 108.66
- cell vialibity normalized to Vehicle (DMSO) (Jurkat T cells; dose 0.411523 μM): 95.2614 and 97.0588
- cell vialibity normalized to Vehicle (DMSO) (Jurkat T cells; dose 1.23457 μM): 97.7941 and 96.1601
- cell vialibity normalized to Vehicle (DMSO) (Jurkat T cells; dose 3.7037 μM): 99.2647 and 106.127
- cell vialibity normalized to Vehicle (DMSO) (Jurkat T cells; dose 11.1111 μM): 82.9248 and 78.6765
- cell vialibity normalized to Vehicle (DMSO) (Jurkat T cells; dose 33.3333 μM): 10.049 and 10.3758
- cell vialibity normalized to Vehicle (DMSO) (Jurkat T cells; dose 100 μM): 2.696 and 3.35
- cell vialibity normalized to Vehicle (DMSO) (Hek293 cells; HEK293, dose 0.137174 μM): 97.7577 and 100.716
- cell vialibity normalized to Vehicle (DMSO) (Hek293 cells; HEK293, dose 0.411523 μM): 94.3943 and 94.2074
- cell vialibity normalized to Vehicle (DMSO) (Hek293 cells; HEK293, dose 1.23457 μM): 85.067 and 89.3024
- cell vialibity normalized to Vehicle (DMSO) (Hek293 cells; HEK293, dose 3.7037 μM): 85.4718 and 85.9078
- cell vialibity normalized to Vehicle (DMSO) (Hek293 cells; HEK293, dose 11.1111 μM): 79.6792 and 82.0461
- cell vialibity normalized to Vehicle (DMSO) (Hek293 cells; HEK293, dose 33.3333 μM): 56.1352 and 52.9274
- cell vialibity normalized to Vehicle (DMSO) (Hek293 cells; HEK293, dose 100 μM): 25.8642 and 25.3348
- cell vialibity normalized to Vehicle (DMSO) (Hek293 cells; HEK293, dose 300 μM): 21.3952 and 21.8001
- cell vialibity normalized to Vehicle (DMSO) (Hek293 cells; HEK293, dose 900 μM): 5.254 and 4.351

Compound: CN(C)c1cc(NC(=O)CNC(C)(C)C)c(O)c2c1C[C@H]1C[C@H]3[C@H](N(C)C)C(O)=C(C(N)=O)C(=O)[C@@]3(O)C(O)=C1C2=O [TIGE]
- cell vialibity normalized to Vehicle (DMSO) (HeLa cells; dose 0.137174 μM): 99.0957 and 99.8329
- cell vialibity normalized to Vehicle (DMSO) (HeLa cells; dose 0.411523 μM): 99.7643 and 100.836
- cell vialibity normalized to Vehicle (DMSO) (HeLa cells; dose 1.23457 μM): 95.2089 and 96.0446
- cell vialibity normalized to Vehicle (DMSO) (HeLa cells; dose 3.7037 μM): 96.0724 and 96.0446
- cell vialibity normalized to Vehicle (DMSO) (HeLa cells; dose 11.1111 μM): 92.3538 and 93.0501
- cell vialibity normalized to Vehicle (DMSO) (HeLa cells; dose 33.3333 μM): 92.3816 and 88.3426
- cell vialibity normalized to Vehicle (DMSO) (HeLa cells; dose 100 μM): 85.5606 and 88.2068
- cell vialibity normalized to Vehicle (DMSO) (HeLa cells; dose 300 μM): 79.8329 and 79.3036
- cell vialibity normalized to Vehicle (DMSO) (HeLa cells; dose 900 μM): 37.2702 and 29.1086
- cell vialibity normalized to Vehicle (DMSO) (Jurkat T cells; dose 0.137174 μM): 84.3137 and 94.7712
- cell vialibity normalized to Vehicle (DMSO) (Jurkat T cells; dose 0.411523 μM): 86.6013 and 87.2549
- cell vialibity normalized to Vehicle (DMSO) (Jurkat T cells; dose 1.23457 μM): 80.8824 and 75.3268
- cell vialibity normalized to Vehicle (DMSO) (Jurkat T cells; dose 3.7037 μM): 47.0588 and 43.6275
- cell vialibity normalized to Vehicle (DMSO) (Jurkat T cells; dose 11.1111 μM): 16.7484 and 17.0752
- cell vialibity normalized to Vehicle (DMSO) (Jurkat T cells; dose 33.3333 μM): 6.618 and 5.964
- cell vialibity normalized to Vehicle (DMSO) (Hek293 cells; HEK293, dose 0.137174 μM): 102.411 and 106.702
- cell vialibity normalized to Vehicle (DMSO) (Hek293 cells; HEK293, dose 0.411523 μM): 106.064 and 102.447
- cell vialibity normalized to Vehicle (DMSO) (Hek293 cells; HEK293, dose 1.23457 μM): 90.2128 and 81.4539
- cell vialibity normalized to Vehicle (DMSO) (Hek293 cells; HEK293, dose 11.1111 μM): 38.3156 and 41.7553
- cell vialibity normalized to Vehicle (DMSO) (Hek293 cells; HEK293, dose 33.3333 μM): 48.1383 and 50.0177
- cell vialibity normalized to Vehicle (DMSO) (Hek293 cells; HEK293, dose 100 μM): 40.2704 and 46.6888
- cell vialibity normalized to Vehicle (DMSO) (Hek293 cells; HEK293, dose 300 μM): 31.6312 and 31.5248
- cell vialibity normalized to Vehicle (DMSO) (Hek293 cells; HEK293, dose 900 μM): 7.2695 and 4.539

Compound: oxycycline
- cell vialibity normalized to Vehicle (DMSO) (PBMCs; dose 0.0457247 μM): 99.5117 and 100.066 and 89.1698 and 120.008 and 102.707
- cell vialibity normalized to Vehicle (DMSO) (PBMCs; dose 0.137174 μM): 101.938 and 102.097 and 92.5408 and 113.339 and 130.667
- cell vialibity normalized to Vehicle (DMSO) (PBMCs; dose 0.411523 μM): 93.1002 and 107.019 and 97.4538 and 111.081 and 113.453
- cell vialibity normalized to Vehicle (DMSO) (PBMCs; dose 1.23457 μM): 93.4625 and 104.955 and 100.95 and 107.767 and 104.422
- cell vialibity normalized to Vehicle (DMSO) (PBMCs; dose 3.7037 μM): 87.0825 and 89.8101 and 98.4579 and 106.835 and 106.22
- cell vialibity normalized to Vehicle (DMSO) (PBMCs; dose 11.1111 μM): 86.2319 and 86.9364 and 102.905 and 107.27 and 113.598
- cell vialibity normalized to Vehicle (DMSO) (PBMCs; dose 33.3333 μM): 84.2313 and 84.0462 and 91.6801 and 95.3397 and 99.442
- cell vialibity normalized to Vehicle (DMSO) (Jurkat T cells; 72 h, dose 0.0457247 μM, Fig. 1A): 95.9551 and 99.8266 and 111.591
- cell vialibity normalized to Vehicle (DMSO) (Jurkat T cells; 72 h, dose 0.137174 μM, Fig. 1A): 122.921 and 100.043 and 106.21
- cell vialibity normalized to Vehicle (DMSO) (Jurkat T cells; 72 h, dose 1.23457 μM, Fig. 1A): 104.27 and 99.6099 and 104.508
- cell vialibity normalized to Vehicle (DMSO) (Jurkat T cells; 72 h, dose 3.7037 μM, Fig. 1A): 87.8652 and 92.4577 and 103.45
- cell vialibity normalized to Vehicle (DMSO) (Jurkat T cells; 72 h, dose 11.1111 μM, Fig. 1A): 101.124 and 98.0061 and 123.919
- cell vialibity normalized to Vehicle (DMSO) (Jurkat T cells; 72 h, dose 33.3333 μM, Fig. 1A): 92.809 and 101.734 and 114.305
- cell vialibity normalized to Vehicle (DMSO) (Jurkat T cells; 72 h, dose 100 μM, Fig. 1A): 28.8764 and 25.2276 and 26.6329
- cell vialibity normalized to Vehicle (DMSO) (Jurkat T cells; 72 h, dose 300 μM, Fig. 1A): 15.1685 and 10.4898 and 12.0515
